Assay results taken from patent publication US7018796B2, “Preincubation assay methods” (Shionogi & Co., Ltd., priority 2000, dated 2006).

Molecular target: T1, HCV RNA-dependent RNA polymerase (Hepatitis C virus genotype 1a, UniProt P27958)
T1 construct: HCV RNA-dependent RNA polymerase is encoded in the NS5B (nonstructural protein 5B) region of HCV; made in house; host or cells: insect cells or E. coli
Assay: Pre-incubation assay method with 3H-UTP (Example 1)
Format: biochemical
Details: pre-incubation 25° C. 60 min, method of Example 1; for inhibition at 100 µg/mL: 100 μg/ml, read-out: Inhibition rate at a concentration of 100 μg/ml
Method: A HCV RNA-dependent RNA polymerase, template RNA, primer RNA and Mg ion (Mg^2+) are pre-incubated at approximately 25° C. for approximately 1 hour. After that, substrate RNA and a test substance are added to start an enzyme reaction and measure an enzyme activity. IC50 value can be calculated by comparing with an enzyme activity measured in the absence of a test substance as well as the above prior method. An inhibitor can be selected by comparing IC50. An example of a procedure of this method is shown in the later described Example 1.
A cDNA encoding HCV RNA-dependent RNA polymerase was made by use of HCV positive human plasma and HCV RNA-dependent RNA polymerase was expressed using the insect cells or the E. coli. HCV RNA-dependent RNA polymerase in the cell extract was purified by use of an anion exchange chromatography, a heparin affinity chromatography, a polyU affinity chromatography, a cation exchange chromatography and gel filtration chromatography. The purification was performed at 4° C. and Tris buffer (pH 7.5) containing ethylenediaminetetraacetic acid (1 mM), dithiothreitol (10 mM) and glycerol (20%) was used. The enzyme purified was stored at 4° C. until use for the assays.
• 1) The buffer I ^1) (10.5 μl) containing Tris-HCl (100 mM, pH 7.5), MgCl2 (25 mM), dithiothreitol (5 mM), KCl (125 mM) and ethylenediaminetetraacetic acid (5 mM) was transferred to a polypropylene tube and then poly(A)^2) solution (100 μg/ml, 10.5 μl), oligo(U)12 ^3) solution (1 μg/ml, 10.5 μl) and water (8 μl) were added into the tube and mixed. • 2) Next, HCV RNA-dependent RNA polymerase (10.5 μl) was added into the tube and pre-incubated at 25° C. for […]. • 3) The enzyme solution pre-incubated (50 μl) was added to a test compound (5.26 μl/well) dissolved with dimethyl sulfoxide or water in a well of a 96-wells microtiter plate. • 4) Additionally, the buffer II (10.6 μl) containing Tris-HCl (100 mM, pH 7.5), MgCl2 (25 mM), dithiothreitol (5 mM), KCl (125 mM), ethylenediaminetetraacetic acid (5 mM) and UTP • 4) (2.1 μM, 1 μCi ^3H-UTP), was mixed with water (39.4 μl). The mixture (50 μl) was added into the well and mix, and then the enzyme reaction was performed at 25° C. for 30 min. • 5) After enzyme reaction for 30 min, the enzyme reaction was stopped by adding disodium ethylenediaminetetraacetic acid (50 mM, 50 μl). • 6) By use of the cell-harvester, all volume of the enzyme reaction sample was transferred onto a filtermat bound with diethylaminoethyl base (referred to as DEAE-filtermat) and washed twice for 10 sec with sodium phosphate buffer (0.25 M, pH 7.0) and once for 10 sec with de-ionized water. • 7) The DEAE-filtermat was dried at 95° C. for 15 min and transferred into a sample bag with liquid scintillater (10 ml), and then a sample bag was sealed. • 8) The radio activity was measured by a scintillation counter. • 9) The inhibitory rate was calculated from the radioactivity measured (ccpm) as follows. [formula]
The concentration of compound at 50% inhibition (IC50 value) was calculated from the compound concentration used and the inhibitory rate calculated.
When use of a compound at a μg/ml results in A % inhibition and use of a compound at β μg/ml results in B % inhibition on condition of A≧50>B the IC50 value is obtained by the calculation as follows. IC50 (μg/ml)=10^[(50−B)/(A−B)×(log^α^−log^β^)+log^β^]

T1 sequence (P27958 2421-3011): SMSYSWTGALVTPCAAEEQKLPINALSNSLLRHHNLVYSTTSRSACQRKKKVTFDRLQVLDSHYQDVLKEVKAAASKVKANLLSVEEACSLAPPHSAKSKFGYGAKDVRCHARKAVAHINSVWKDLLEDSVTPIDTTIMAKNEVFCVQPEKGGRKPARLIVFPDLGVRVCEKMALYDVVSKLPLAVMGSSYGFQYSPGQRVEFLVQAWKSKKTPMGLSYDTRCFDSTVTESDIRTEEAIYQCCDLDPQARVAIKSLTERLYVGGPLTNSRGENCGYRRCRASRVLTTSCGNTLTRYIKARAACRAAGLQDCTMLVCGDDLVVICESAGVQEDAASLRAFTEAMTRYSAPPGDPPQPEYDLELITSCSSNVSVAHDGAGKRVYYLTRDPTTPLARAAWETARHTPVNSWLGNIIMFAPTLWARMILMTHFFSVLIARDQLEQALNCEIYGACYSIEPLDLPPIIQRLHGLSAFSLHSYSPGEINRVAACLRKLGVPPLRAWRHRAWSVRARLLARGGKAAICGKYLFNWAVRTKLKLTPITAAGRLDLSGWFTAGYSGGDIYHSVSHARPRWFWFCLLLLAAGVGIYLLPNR

| SMILES | inhibition at 100 µg/mL [%] | IC50 [µM] |
| --- | --- | --- |
| O=C(O)C(O)=CC(=O)c1cc2ccccc2[nH]1 [Compound I-8] | 95 | 29.8 |
| O=C(O)C(O)=CC(=O)c1ccc(Cl)cc1 [Compound I-9] | 94 | 31.3 |
| O=C(O)C(O)=CC(=O)c1ccsc1 [Compound I-10] | 94 | 36.3 |
| O=C(O)C(O)=CC(=O)c1ccc(F)cc1 [Compound I-11] | 94 | 35.2 |
| COc1cccc(C(=O)C=C(O)C(=O)O)c1 [Compound I-12] | 94 | 37.8 |
| O=C(O)C(O)=CC(=O)c1cccs1 [Compound I-13] | 92 | 43.9 |
| O=C(O)C(O)=CC(=O)c1cccc(Br)c1 [Compound I-14] | 93 | 32.8 |
| Cn1cccc1C(=O)C=C(O)C(=O)O [Compound I-15] | 94 | 50.2 |
| O=C(O)C(O)=CC(=O)c1ccc[nH]1 [Compound I-16] | 92 | 55.2 |
| COc1cc(C(=O)C=C(O)C(=O)O)ccc1O [Compound I-17] | 92 | 46.2 |
| O=C(O)C(O)=CC(=O)c1ccc(Cl)cc1Cl [Compound I-18] | 90 | 49.8 |

Now those with a lower IC50, led by results:

| inhibition at 100 µg/mL [%] | IC50 [µM] | SMILES |
| --- | --- | --- |
| 95 | 28.5 | O=C(O)C(O)=CC(=O)c1ccc2ccccc2c1 [Compound I-7] |
| 97 | 14.6 | Cc1ccc(C(=O)C=C(O)C(=O)O)s1 [Compound I-6] |
| 98 | 12 | O=C(O)C(O)=CC(=O)c1ccccc1 [Compound I-5] |
| > 99 | 6.76 | Nc1ccc(C(=O)C=C(O)C(=O)O)cc1 [Compound I-4] |
| 99 | 4.85 | Cc1ccc(C(=O)C=C(O)C(=O)O)cc1 [Compound I-3] |
| 99 | 4.32 | O=C(O)C(O)=CC(=O)c1ccc(O)cc1 [Compound I-2] |
